This is an account of results in patent US11413240B2 (Board of Regents, The University of Texas System, priority 2016, dated 2022).

For data set [1] the following is noted: in vivo; cited from earlier work.
For data set [2] the following is noted: 10 g/L, 25° C. (77° F.); cited from earlier work.
Data set [3] has as its system patients with oral mucositis pain/lesions. Description: Additional patients assessed after methylene blue oral rinse at 0.025%, 0.05% and 0.1% (Table 2).

`CN(C)c1ccc2nc3ccc(=[N+](C)C)cc-3sc2c1` [methylene blue]: the blood-brain barrier passage entry in data set [1] is “crosses the blood-brain barrier”. Also, the pH in water in data set [2] is reported as 3. Also, the analgesia entry in data set [3] (0.05-0.1% methylene blue as a mouth rinse, almost all patients) is reported as “sustained analgesia over a few days to several months”. In addition, the results for the “onset (of MB effect)” value in data set [3] (MB 0.025% oral rinse) and in data set [3] (MB 0.05% oral rinse) were 2 D and 1 W, respectively. Also, the tolerability entry in data set [3] (mouth rinse, case series) is listed as “tolerated well”.
